The record followed here is the supplement of paper PMC10307832.

What all share (test): relative viability (nuclei count vs DMSO), 5 days (fraction); higher = more cells survive
Compound in experiment [1]: CCC1=CN=CN=C1N2CCN(CC2)CC3=NC4=C(N3)C=C(C=C4)C(F)(F)F + CS(=O)(=O)CCNCc1ccc(-c2ccc3ncnc(Nc4ccc(OCc5cccc(F)c5)c(Cl)c4)c3c2)o1 [Lapatinib] (partner 2 µM)
A digest of the protocol:
(§1)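 Lung cancer cell lines, seeded in 1536-well plates, were treated the following day by pin tool with a single drug or with five library-drug doses (not always all listed) in √10 steps on top of a fixed anchor-drug dose. Cells were fixed and nuclei stained in one step after 5 days, and nuclei were counted. Relative viability is the nuclei count for treated wells divided by that for vehicle wells, reported as medians of duplicate plates.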

Compound in experiment [2]: CCn1c(-c2nonc2N)nc2cnc(Oc3cccc(NC(=O)c4ccc(OCCN5CCOCC5)cc4)c3)cc21 + O=C(CCCCCCC(=O)Nc1ccccc1)NO [Vorinostat] (partner 1 µM)
A digest of the protocol:
as §1

Compound in the experiment “Mirin + Luminespib”: N=C1NC(=O)/C(=C/c2ccc(O)cc2)S1 [Mirin] + CCNC(=O)c1noc(-c2cc(C(C)C)c(O)cc2O)c1-c1ccc(CN2CCOCC2)cc1 [Luminespib] (partner 0.01 µM)
In a few lines:
as §1

Compound in the experiment “Mirin + Crizotinib”: N=C1NC(=O)/C(=C/c2ccc(O)cc2)S1 [Mirin] + C[C@@H](Oc1cc(-c2cnn(C3CCNCC3)c2)cnc1N)c1c(Cl)ccc(F)c1Cl [Crizotinib] (partner 1 µM)
A digest of the protocol: as §1

Take UMC-11: the relative viability in experiment [1] (first compound 0.04 µM) was determined as 0.808; in experiment [1] (first compound 0.1265 µM), 0.974; in experiment [1] (first compound 0.4 µM) it was 0.905; in experiment [1] (first compound 1.265 µM), 0.719; in experiment [1] (first compound 4 µM) it was 0.977; in experiment [2] (first compound 0.04 µM), 0.427. In addition, the relative viability in experiment [2] (first compound 0.1265 µM) was 0.478; in experiment [2] (first compound 0.4 µM) it was 0.437; in experiment [2] (first compound 1.265 µM) it was 0.152; in experiment [2] (first compound 4 µM), 0.158; with Mirin + Luminespib (first compound 0.25 µM), 1.09; with Mirin + Luminespib (first compound 0.7906 µM), 0.983. For the same cell line, the relative viability with Mirin + Luminespib (first compound 2.5 µM) amounted to 1.01; in the experiment with Mirin + Luminespib (first compound 7.906 µM), 0.826; in the experiment with Mirin + Luminespib (first compound 25 µM) it was 0.695; with Mirin + Crizotinib (first compound 0.25 µM), 0.499; in the experiment with Mirin + Crizotinib (first compound 0.7906 µM) it was 0.578; with Mirin + Crizotinib (first compound 2.5 µM) it was 0.529. The relative viability with Mirin + Crizotinib (first compound 7.906 µM) came out at 0.496; with Mirin + Crizotinib (first compound 25 µM), 0.236.
